Assay results reported in US10144929B2, “Polypeptide inhibitors of Smad3 polypeptide activities” (Mayo Foundation for Medical Education and Research, priority 2016, dated 2018).

Experiments:
AKR-2B cells = experiment: Soft agar colony formation (anchorage-independent growth, AIG); assay type: cell-based; settings: 1.5 μM polypeptide, TGFβ 10 ng/mL, seven days
Experimental: FIGS. 2A-C. TAT-SH3 inhibits Smad3-dependent responses. (A) AKR-2B cells were transiently transfected with a Smad3 (3TP), Smad2 (ARE), or Smad1/5/8 (BRE) reporter construct, and luciferase activity determined following 12 hours incubation in the absence (−) or presence (+) of the indicated ligand (5 ng/mL TGFβ; 10 ng/mL BMP4) or TAT-SNX9(SH3) fusion polypeptide (1.5 μM). Data represent the mean+/−SEM of three experiments. (B) RT-PCR analysis of Smad3 (PAI-1 and CTGF) and Smad2 (MMP2) responsive gene following 24 hour treatment of AKR-2B cells with the indicated concentration of TAT-SNX9(SH3) fusion polypeptide or 5 ng/mL TGFβ. Loading was verified by GAPDH expression. (C) Soft agar colony formation was performed following seven days growth in the presence (+) or absence (−) of TGFβ (10 ng/mL) or the indicated TAT-SNX9(SH3) fusion polypeptide (1.5 μM). […]
FIGS. 3A-E. Inhibition of Smad3 signaling by a defined region of the SH3 domain in SNX9. […] (B) Nuclear fractions were prepared and assessed as in FIG. 1B following transduction with the indicated TAT-SNX9(SH3) fusion polypeptide (Left). Quantitation (mean+/−sd) of nuclear pSmad2 or pSmad3 from 2 experiments (Right). (C) Immunofluorescence of nuclear Smad3 was determined as in FIG. 1C from 30 cells in each of two experiments in the absence (−) or presence (+) of 5 ng/mL TGFβ and the indicated TAT-SNX9(SH3) fusion polypeptide (1.5 μM). […]

CTS SSCT fibroblasts = experiment: TGF-β responsive gene expression in CTS subsynovial connective tissue fibroblasts (qRT-PCR); assay type: cell-based, human; settings: 1.5 μM, 90 minutes pretreatment, 2 ng/mL TGF-β 24 hours
Description: FIG. 8 is a graph plotting the expression of CTGF. TGFβ stimulated CTGF gene expression was examined in subsynovial connective tissue as in FIGS. 3D and 4B following addition of TAT-SH3-2 (SNX9 peptide) or TAT-SH3-2M (Control peptide). The results were normalized to control treatments without TGFβ.
FIG. 9 is a graph plotting the expression of PAI-1 by cells exposed to the indicated treatments. TGFβ stimulated PAI-1 gene expression was examined in subsynovial connective tissue as in FIG. 8.
Fibroblasts were harvested from CTS patient SSCT tissue (n=3) who had carpal tunnel release surgery as described elsewhere (Gingery et al., J. Orthop. Res., 32(11):1444-50 (2014)). The CTS SSCT fibroblasts were cultured in Minimum Essential Media (MEM) supplemented with 10% fetal bovine serum (FBS) and 1% antibiotic/antimycotic. […]
Total RNA was isolated gene expression was evaluated using quantitative real-time polymerase chain reaction (qRT-PCR) as described elsewhere (Gingery et al., J. Orthop. Res., 32(11):1444-50 (2014)). TGF-β responsive genes (connective tissue growth factor (CTGF) and plasminogen activator inhibitor-1 (PAI-1)) were evaluated with TATA binding protein as the housekeeping gene.
Statistical analysis of qRT-PCR gene expression was normalized to control, and significance was determined by unpaired Student's t-test for each gene. […]

[1] = test system: Normal human lung fibroblasts (NHLF) or lung fibroblasts from idiopathic pulmonary fibrosis (IPF) patients; experiment: Profibrotic responses in human lung fibroblasts (F-actin, Western, qPCR); assay type: cell-based; settings: TGFβ 5 ng/mL 24 hours
Experimental: FIGS. 11A-C. TAT-SH3-2 inhibits profibrotic responses in human lung fibroblasts. (A) Normal human lung fibroblasts (NHLF) or lung fibroblasts from idiopathic pulmonary fibrosis (IPF) patients were transduced with the indicated TAT polypeptide. TGFβ (5 ng/mL) or SB431542 (10 μM) was then added for an additional 24 hours. Images were obtained on a LSM510 confocal microscope following F-actin labeling with phalloidin-TRITC and DAPI nuclei staining. Scale bar: 10 μm. (B) Western analysis for the indicated polypeptides (α-SMA, alpha smooth muscle actin; CTGF, connective tissue growth factor; and GAPDH, glyceraldehyde phosphate dehydrogenase) subsequent to TAT polypeptide transduction and 24 hour treatment in the absence (−) or presence (+) of TGFβ (5 ng/mL) or SB431542 (10 μM). (C) NHLF or IPF fibroblasts were treated as in (A), and qPCR was performed as described herein. Results represent mean±SEM from three independent experiments. *P<0.05, **P<0.005, *** P<0.001.
Normal human lung fibroblasts (NHLF) or lung fibroblasts from idiopathic pulmonary fibrosis (IPF) patients were transduced with the indicated TAT polypeptide. TGFβ (5 ng/mL) or SB431542 (10 μM) was then added for an additional 24 hours. Images were obtained on a LSM510 confocal microscope following F-actin labeling with phalloidin-TRITC and DAPI nuclei staining. […]

TAT-SH3-2: TAT-SNX9(SH3) fusion polypeptide having SNX9 amino acids 21-51 (31 mer) (TVNEGEIITITNPDVGGGWLEGRNIKGERGL; left off: small tags and cut ends)
TGFβ-stimulated anchorage-independent growth in soft agar (AIG) (AKR-2B cells): prevented | expression of PAI-1 (CTS SSCT fibroblasts): No significant differences | CTGF gene expression (CTS SSCT fibroblasts; compared with vehicle, P<0.05): down regulated | profibrotic responses in human lung fibroblasts [1]: inhibited profibrotic responses
